This note sets out measurements from patent publication US20200032249A1, “LABELING, ISOLATION, & ANALYSIS OF RNA FROM RARE CELL POPULATIONS” (priority 2017, published 2020).

Test [1] deals with MDA231 cells expressing CD/UPRT in mouse lungs. Kind of test: signal-to-noise ratio of Flura-tagging and TU-tagging in vivo, lung colonization xenograft, RT-PCR. To be noted: 250 mg/kg, 12 h post injection. How it is done: FIG. 3 a-g. Flura-tagging of mRNA in vivo. FIG. 3a—Schematic diagram of lung colonization xenograft assay used for evaluation of Flura-tagging/Flura-seq. Athymic mice were injected through the tail vein with 50,000 MDA231 cells expressing CD/UPRT and GFP-luciferase. Upon the development of detectable bioluminescent lung metastases (4 weeks), mice were treated with doxycycline to induce CD/UPRT expression and injected with 5-FC. Lungs were harvested, and Flura-tagged mRNAs were immunopurified. FIG. 3b—Comparison of signal-to-noise ratio of Flura-tagging and TU-tagging in vivo. Mice were injected with either 5-FC or TU, the Flura-tagged or TU-tagged mRNAs were purified 12 h post injection, and the relative fold enrichment of representative human housekeeping genes relative to representative murine housekeeping genes (mHPRT1, mLDH1, mPGK1 and mGAPDH), normalized to their corresponding unpurified inputs, were measured by RT-PCR (n=5, ±S.E.). FIG. 3c—Quantification of the number of human cells in the mouse lungs used for Flura-tagging. Half of the mouse lungs used for Flura-tagging in FIG. 3b was dissociated into single cells, and the number of RFP+ cells was quantified using flow cytometry. The total number of MDA231 cells per lung was estimated based on an assumption of 1.5×10^8 cells per mouse lung (20) (n=5). […] RNA reads were aligned to a hybrid genome containing the human and mouse genomes. […]

Test [2] deals with 293T cells. Kind of test: anti-BrdU immunofluorescent staining of 293T cells treated with 5-FC or 5-FU. To be noted: 250 μM, 24 h. In kind it is cell-based, human. The procedure: S. cerevisiae CD was exogenously expressed in human embryonic kidney 293T cells, and the cells were treated with 250 μM fluorocytosine (5-FC). This system is predicted to generate intracellular fluorouracil (5-FU), which is then incorporated into newly synthesized RNAs (FIG. 1a, b). Antibodies against bromodeoxyuridine (BrdU) can recognize BrdU and other halogenated uridines incorporated into nucleic acids (8).
Human embryonic kidney transformed with […] (293T) and human breast cancer MDA-MB-231 (MDA231) cells were cultured in DMEM High Glucose medium (Wheaton) supplemented with 10% Fetal Bovine Serum (Clontech, Catalog number 631106) supplemented with 2 mM L-Glutamine. All cell lines have been routinely tested for mycoplasma contamination. For the induction of CD or CD and UPRT, cells were treated with 1 μg/ml doxycycline for 24 h. For Fluorouracil tagging, cells were treated with 250 μM of 5-FC or 5-FU unless indicated. Where indicated, 125 μM thymine was added together with 5-FC. For the formation of stress granules, cells were treated with 500 μM Sodium Arsenite (Santa Cruz Biotechnologies, Catalog number SC-301816).
Cells were fixed with 4% paraformaldehyde for 10 min, permeabilized with 0.2% TritonX-100 for 10 min, blocked with 5% BSA for one hour at room temperature, prior to incubation with primary antibodies at 4° C. overnight, and secondary antibodies (Thermo Fisher anti-chicken antibody, Catalog number A-11039, Thermo Fisher anti-rat antibody, Catalog number A-11006, Abcam anti-rat antibody, Catalog number ab150117) incubated for 1 h at room temperature. Mouse lungs were fixed in 4% paraformaldehyde overnight at 4° C., embedded in paraffin and sectioned. The lung sections were deparaffinized and stained with hematolxylin/eosin or immunostained using standard protocols. Automated image analysis was performed using the FIJI software package.

Turning to `Nc1nc(=O)[nH]cc1F` [5-FC, 5-fluorocytosine], the “enrichment of human mRNAs compared to mouse mRNAs” value in test [1] is “over 1000 fold”. In addition, the “immunostaining with anti-BrdU antibody” value in test [2] (293T cells expressing CD) was “stained by the antibody”; in test [2] (untransfected control 293T cells), “did not”.
